Test results from patent US20240050428A1 (Cullgen (Shanghai), Inc., priority 2020, published 2024).
Where two headings read alike, the source gives them in different places.

Experiments:
[1] = tested on: MOLM-13 cells; assay: Cell viability assay (CellTiter-Glo) in MOLM-13 cells, alone or with gilteritinib; format: cell-based; settings: MOLM-13 cells, three days, CellTiter-Glo
[2] = tested on: MV4;11 cells; assay: Cell viability assay (CellTiter-Glo) in MV4;11 cells, alone or with gilteritinib; format: cell-based; settings: MV4;11 cells, three days, CellTiter-Glo, read-out: MV4
[3] = Homo sapiens, MOLM-13, 72 h, compound alone (without gilteritinib), read-out: MOLM-13 IC50
[4] = Homo sapiens, MOLM-13, 72 h, with gilteritinib 20 nM, read-out: MOLM-13 IC50 gilteritinib
[5] = Homo sapiens, MV4-11, 72 h, compound alone (without gilteritinib), 11 IC50
[6] = Homo sapiens, MV4-11, 72 h, with gilteritinib 10 nM, 11 IC50 gilteritinib
[7] = Homo sapiens, MOLM-13, 72 h, compound with gilteritinib 20 nM, read-out: MOLM-13 IC50 gilteritinib
[8] = Homo sapiens, MV4-11, 72 h, compound with gilteritinib 10 nM, 11 IC50 gilteritinib

IC50 [1, 3] [nM]	IC50 [1, 4] [nM]	IC50 [2, 5] [nM]	IC50 [2, 6] [nM]	IC50 [1, 7] [nM]	IC50 [2, 8] [nM]	IC50 ([1]; compound alone (without gilteritinib), read-out: MOLM-13 IC50) [nM]	IC50 ([2]; compound alone (without gilteritinib), 11 IC50) [nM]	SMILES
100 to 1000		100 to 1000		10 to 100	10 to 100			CN1CCN(c2ccc3ncc(-c4cnn([C@H]5C[C@H](CCCNc6ccc7c(c6)C(=O)N(C6CCC(=O)NC6=O)C7=O)C5)c4)nc3c2)CC12CC2 (stereo partly drawn) [GS-414, 2-(2,6-dioxopiperidin-3-yl)-5-((3-(trans-3-(4-(7-(4-methyl-4,7-diazaspiro[2.5]octan-7-yl)quinoxalin-2-yl)-1H-pyrazol-1-yl)cyclobutyl)propyl)amino)isoindoline-1,3-dione]
> 1000		> 1000		> 1000	> 1000			O=C1CCC(N2C(=O)c3ccc(NCCC[C@H]4C[C@H](n5cc(-c6cnc7ccc(N8C[C@H]9C[C@@H]8CN9)cc7n6)cn5)C4)cc3C2=O)C(=O)N1 (stereo partly drawn) [GS-415, 5-((3-(trans-3-(4-(7-((1R,4R)-2,5-diazabicyclo[2.2.1]heptan-2-yl)quinoxalin-2-yl)-1H-pyrazol-1-yl)cyclobutyl)propyl)amino)-2-(2,6-dioxopiperidin-3-yl)isoindoline-1,3-dione]
> 1000		> 1000		100 to 1000	> 1000			CN1CCN(c2cccc(-c3cnn([C@H]4C[C@H](CNc5ccc6c(c5)C(=O)N(C5CCC(=O)NC5=O)C6=O)C4)c3)n2)CC1 (stereo partly drawn) [GS-416, 2-(2,6-dioxopiperidin-3-yl)-5-(((trans-3-(4-(6-(4-methylpiperazin-1-yl)pyridin-2-yl)-1H-pyrazol-1-yl)cyclobutyl)methyl)amino)isoindoline-1,3-dione]
100 to 1000		100 to 1000		10 to 100	10 to 100			Cc1nn([C@H]2C[C@H](CCCNc3ccc4c(c3)C(=O)N(C3CCC(=O)NC3=O)C4=O)C2)cc1-c1cnc2c(N3CCN(C)CC3)cccc2n1 (stereo partly drawn) [GS-417, 2-(2,6-dioxopiperidin-3-yl)-5-((3-(trans-3-(3-methyl-4-(5-(4-methylpiperazin-1-yl)quinoxalin-2-yl)-1H-pyrazol-1-yl)cyclobutyl)propyl)amino)isoindoline-1,3-dione]
10 to 100		10 to 100		< 10	< 10			Cc1nn([C@H]2C[C@H](CCCNc3ccc4c(c3)C(=O)N(C3CCC(=O)NC3=O)C4=O)C2)cc1-c1cnc2c(C3CCN(C)CC3)cccc2n1 (stereo partly drawn) [GS-418, 2-(2,6-dioxopiperidin-3-yl)-5-((3-(trans-3-(3-methyl-4-(5-(1-methylpiperidin-4-yl)quinoxalin-2-yl)-1H-pyrazol-1-yl)cyclobutyl)propyl)amino)isoindoline-1,3-dione]
10 to 100		10 to 100		< 10	10 to 100			CN1CCC(c2ccc3nc(-c4cnn([C@H]5C[C@H](CCCNc6ccc7c(c6)C(=O)N(C6CCC(=O)NC6=O)C7=O)C5)c4)cnc3c2)CC1 (stereo partly drawn) [GS-419, 2-(2,6-dioxopiperidin-3-yl)-5-((3-(trans-3-(4-(6-(1-methylpiperidin-4-yl)quinoxalin-2-yl)-1H-pyrazol-1-yl)cyclobutyl)propyl)amino)isoindoline-1,3-dione]

The next lines start with the molecule.

SMILES	IC50 [1, 3] [nM]	IC50 [1, 4] [nM]	IC50 [2, 5] [nM]	IC50 [2, 6] [nM]	IC50 [1, 7] [nM]	IC50 [2, 8] [nM]	IC50 ([1]; compound alone (without gilteritinib), read-out: MOLM-13 IC50) [nM]	IC50 ([2]; compound alone (without gilteritinib), 11 IC50) [nM]
O=C1CCC(N2C(=O)c3ccc(NCCC[C@H]4C[C@H](n5cc(-c6cnc7cc(N8CCNCC8)ccc7n6)cn5)C4)cc3C2=O)C(=O)N1 (stereo partly drawn) [GS-401, 2-(2,6-Dioxopiperidin-3-yl)-5-((3-(trans-3-(4-(6-(piperazin-1-yl)quinoxalin-2-yl)-1H-pyrazol-1-yl)cyclobutyl)propyl)amino)isoindoline-1,3-dione]	10 to 100	< 10	10 to 100	< 10				
O=C1CCC(N2C(=O)c3ccc(NCCC[C@H]4C[C@@H](n5cc(-c6cnc7cc(N8CCOCC8)ccc7n6)cn5)C4)cc3C2=O)C(=O)N1 (stereo partly drawn) [GS-402, 2-(2,6-Dioxopiperidin-3-yl)-5-((3-(cis-3-(4-(6-morpholinoquinoxalin-2-yl)-1H-pyrazol-1-yl)cyclobutyl)propyl)amino)isoindoline-1,3-dione]	> 1000	10 to 100	100 to 1000	10 to 100				
O=C1CCC(N2C(=O)c3ccc(NCCC[C@H]4C[C@H](n5cc(-c6cnc7c(N8CCOCC8)cccc7n6)cn5)C4)cc3C2=O)C(=O)N1 (stereo partly drawn) [GS-403, 2-(2,6-Dioxopiperidin-3-yl)-5-((3-(trans-3-(4-(5-morpholinoquinoxalin-2-yl)-1H-pyrazol-1-yl)cyclobutyl)propyl)amino)isoindoline-1,3-dione]	100 to 1000	10 to 100	100 to 1000	10 to 100				
CN1CCN(c2cccc3nc(-c4cnn([C@H]5C[C@H](CCCNc6ccc7c(c6)C(=O)N(C6CCC(=O)NC6=O)C7=O)C5)c4)cnc23)CC1 (stereo partly drawn) [GS-404, 2-(2,6-Dioxopiperidin-3-yl)-5-((3-(trans-3-(4-(5-(4-methylpiperazin-1-yl)quinoxalin-2-yl)-1H-pyrazol-1-yl)cyclobutyl)propyl)amino)isoindoline-1,3-dione]	100 to 1000	< 10	10 to 100	< 10				
O=C1CCC(N2C(=O)c3ccc(NCCC[C@H]4C[C@H](n5cc(-c6cnc7c(N8CCNCC8)cccc7n6)cn5)C4)cc3C2=O)C(=O)N1 (stereo partly drawn) [GS-405, 2-(2,6-Dioxopiperidin-3-yl)-5-((3-(trans-3-(4-(5-(piperazin-1-yl)quinoxalin-2-yl)-1H-pyrazol-1-yl)cyclobutyl)propyl)amino)isoindoline-1,3-dione]	100 to 1000	< 10	10 to 100	10 to 100				
Cc1nn([C@H]2C[C@H](CCCNc3ccc4c(c3)C(=O)N(C3CCC(=O)NC3=O)C4=O)C2)cc1-c1cnc2ccc(N3C[C@H]4C[C@@H]3CN4C)cc2n1 (stereo partly drawn) [GS-407, 2-(2,6-dioxopiperidin-3-yl)-5-((3-(trans-3-(3-methyl-4-(7-((1R,4R)-5-methyl-2,5-diazabicyclo[2.2.1]heptan-2-yl)quinoxalin-2-yl)-1H-pyrazol-1-yl)cyclobutyl)propyl)amino)isoindoline-1,3-dione]	> 1000	10 to 100	> 1000	100 to 1000				
C[C@@H]1CN(c2ccc3ncc(-c4cnn([C@H]5C[C@H](CCCNc6ccc7c(c6)C(=O)N(C6CCC(=O)NC6=O)C7=O)C5)c4)nc3c2)C[C@H](C)N1C (stereo partly drawn) [GS-408, 2-(2,6-dioxopiperidin-3-yl)-5-((3-(trans-3-(4-(7-((3S,5R)-3,4,5-trimethylpiperazin-1-yl)quinoxalin-2-yl)-1H-pyrazol-1-yl)cyclobutyl)propyl)amino)isoindoline-1,3-dione]	100 to 1000	10 to 100	100 to 1000	10 to 100				
CN1C2CCC1CN(c1ccc3ncc(-c4cnn([C@H]5C[C@H](CCCNc6ccc7c(c6)C(=O)N(C6CCC(=O)NC6=O)C7=O)C5)c4)nc3c1)C2 (stereo partly drawn) [GS-409, 2-(2,6-dioxopiperidin-3-yl)-5-((3-(trans-3-(4-(7-(8-methyl-3,8-diazabicyclo[3.2.1]octan-3-yl)quinoxalin-2-yl)-1H-pyrazol-1-yl)cyclobutyl)propyl)amino)isoindoline-1,3-dione]	10 to 100	< 10	10 to 100	10 to 100				
O=C1CCC(N2C(=O)c3ccc(NCCC[C@H]4C[C@H](n5cc(-c6cnc7ccc(N8C[C@H]9C[C@@H]8CO9)cc7n6)cn5)C4)cc3C2=O)C(=O)N1 (stereo partly drawn) [GS-410, 5-((3-(trans-3-(4-(7-((1R,4R)-2-oxa-5-azabicyclo[2.2.1]heptan-5-yl)quinoxalin-2-yl)-1H-pyrazol-1-yl)cyclobutyl)propyl)amino)-2-(2,6-dioxopiperidin-3-yl)isoindoline-1,3-dione]	10 to 100	< 10	10 to 100	< 10				
CN1C[C@H]2C[C@@H]1CN2c1ccc2ncc(-c3cnn([C@H]4C[C@H](CCCNc5ccc6c(c5)C(=O)N(C5CCC(=O)NC5=O)C6=O)C4)c3)nc2c1 (stereo partly drawn) [GS-411, 2-(2,6-dioxopiperidin-3-yl)-5-((3-(trans-3-(4-(7-((1R,4R)-5-methyl-2,5-diazabicyclo[2.2.1]heptan-2-yl)quinoxalin-2-yl)-1H-pyrazol-1-yl)cyclobutyl)propyl)amino)isoindoline-1,3-dione]	> 1000	< 10	10 to 100	< 10				
CN1CCN(c2ccc3nc(-c4cnn([C@H]5C[C@@H](CCCNc6ccc7c(c6)C(=O)N(C6CCC(=O)NC6=O)C7=O)C5)c4)cnc3c2)CC1 (stereo partly drawn) [GS-412, 2-(2,6-dioxopiperidin-3-yl)-5-((3-(cis-3-(4-(6-(4-methylpiperazin-1-yl)quinoxalin-2-yl)-1H-pyrazol-1-yl)cyclobutyl)propyl)amino)isoindoline-1,3-dione]	100 to 1000		100 to 1000		10 to 100	10 to 100		
CN1CCN(c2cccc(-c3cnn([C@H]4C[C@H](CCCNc5ccc6c(c5)C(=O)N(C5CCC(=O)NC5=O)C6=O)C4)c3)n2)CC1 (stereo partly drawn) [GS-413, 2-(2,6-dioxopiperidin-3-yl)-5-((3-(trans-3-(4-(6-(4-methylpiperazin-1-yl)pyridin-2-yl)-1H-pyrazol-1-yl)cyclobutyl)propyl)amino)isoindoline-1,3-dione]					10 to 100	100 to 1000	> 1000	100 to 1000
